# Test results: patent US20070275925A1, “ASTHMA DIAGNOSIS AND THERAPY” (REGENTS OF THE UNIVERSITY OF CALIFORNIA, priority 2006, published 2007)
# Assays:
# Assay type in all cases: in vivo, human
# [1] = system: airway epithelial brushings; assay: Taqman / real-time PCR gene expression in airway epithelial brushings, fluticasone trial
# Procedure: Brushings yielded 1,300,000±800,000 cells of which 97±3% were epithelial. For microarray analysis, […] total epithelial RNA was amplified using NuGen Ovation RNA amplification system. Then 2.75 μg sscDNA was hybridized to Affymetrix U133 plus 2.0 arrays (>54,000 probe sets coding for 38,500 genes). Array images were analyzed using Affymetrix GeneChip Expression Analysis Software. Bioconductor^5 was used for quality control (affyPLM algorithm), preprocessing (RMA algorithm), cluster analysis, and linear modeling.^5-7 Raw array data are available from the Gene Expression Omnibus public database (http://www.ncbi.nlm.nih.gov/geo/, accession number pending). Selected microarray findings were confirmed by real-time PCR, enzyme linked immunosorbent assay (ELISA) or immunohistochemistry. In vitro studies of the effects of interleukin-13 (IL-13) on expression of selected genes were performed using primary airway epithelial cells grown at an air-liquid interface (additional detail in supplementary appendix).
# In further analysis of the same dataset we have identified six genes (Table 4) which are differentially expressed in airway epithelial brushings from asthmatics asthma or altered by corticosteroid treatment of asthmatic subjects and which have not previously been implicated in asthma or in the mechanism of steroid benefit in asthma.
# [2] = system: serpinB2 protein; assay: ELISA for serpinB2 protein levels in bronchoalveolar lavage; details: Post-fluticasone (follow-up bronchoscopy, 1 week)
# Source text: Periostin and serpin B2 have not previously been associated with asthma, and we examined their expression at the protein level. […] However, in asthmatics, serpinB2 levels increased in all subjects at the second bronchoscopy (Table 4s, supplementary appendix). The increase in serpinB2 at the second bronchoscopy likely reflects a pro-coagulation response to the minor bleeding that accompanied bronchial biopsy during the first bronchosocopy. ELISA for serpinB2 protein levels in bronchoalveolar lavage fluid was performed using a commercially available kit (Imubind PAI-2 ELISA, American Diagnostica Inc, Stamford Conn.) according to the manufacturer's directions.
# [3] = system: Periostin; assay: Periostin immunohistochemistry in bronchial biopsies with design-based stereology; details: one week of treatment with fluticasone
# Source text: Periostin protein expression was confirmed by immunohistochemistry in bronchial biopsies from a subset of asthmatic and healthy control subjects. Periostin immunolocalized to the subepithelium in all subjects, and quantification confirmed increased expression in asthma (FIG. 3). The degree of immunostaining in asthmatics was not decreased by one week of treatment with fluticasone (FIG. 6, supplementary appendix). Paraffin-embedded sections were deparaffinized and re-hydrated to water. Next, all sections were incubated in 3% hydrogen peroxide/absolute methanol for 10 minutes to block endogenous peroxidase activity. […] Biopsies were formalin-fixed and paraffin-embedded and then analyzed using methods of tissue immunohistochemistry (described above) and design-based stereology.^6 First, the volume of immunohistochemical staining, the volume of submucosal tissue surveyed, and the surface area of the epithelial basal lamina surveyed were determined by point and intersection counting using an integrated microscope (Olympus; Albertslund, Denmark), video camera (JVC Digital Color, JVC A/S; Tatstrup, Denmark), automated microscope stage, and computer (Dell Optiplex GS270 PC running Computer-Assisted Stereology Toolbox [C.A.S.T.] […] Points overlying submucosal tissue that is immunostained and unstained were counted separately along with intersections of test lines with basal lamina. […]
# [4] = one week of treatment, n = 16, greater than one indicates suppression
smiles,measurement,setting,value
"CCC(=O)O[C@]1(C(=O)SCF)[C@H](C)C[C@H]2[C@@H]3C[C@H](F)C4=CC(=O)C=C[C@]4(C)[C@@]3(F)[C@@H](O)C[C@@]21C [fluticasone, fluticasone propionate]",CST1 reduction by taqman,[1]; fluticasone arm as compared to the placebo arm,6 fold
same,"FLUTICASONE Change AVERAGE, CEACAM5 (ratio of gene expression before and after treatment)",[1]; [4],1.88
same,"FLUTICASONE Change AVERAGE, CST1 (ratio of gene expression before and after treatment)",[1]; [4],5.97
same,"FLUTICASONE Change AVERAGE, CST4 (ratio of gene expression before and after treatment)",[1]; [4],5.41
same,"FLUTICASONE Change AVERAGE, HDAC9 (ratio of gene expression before and after treatment)",[1]; [4],2.10
same,"FLUTICASONE Change AVERAGE, SERPINB1 (ratio of gene expression before and after treatment)",[1]; [4],2.31
same,"SerpinB2 protein levels in bronchoalveolar lavage, Mean",[2],0.91 ng/mL
same,Degree of periostin immunostaining in bronchial biopsies of asthmatics,[3],not decreased
